Measurements taken from patent publication US10927105B1 (Lundbeck La Jolla Research Center, Inc., priority 2017, dated 2021).

Legend:
MAGL = MAGL (Homo sapiens (Human), UniProt Q99685); assay: In vitro competitive activity-based protein profiling (human prefrontal cortex membrane fractions, FP-Rh probe), MAGL band; conditions: for IC50: read-out: MAGL IC50 (μM) (human), human prefrontal cortex membrane fractions
Procedure: (§1) Biological Evaluation In Vitro Competitive Activity-Based Protein Profiling.
(§2) Proteomes (mouse brain membrane fraction for mouse assays; human prefrontal cortex membrane fractions for human assays) (50 mL, 1.0 mg/mL total protein concentration) were preincubated with varying concentrations of inhibitors at 37° C. After 30 min, FP-Rh (1.0 mL, 50 mM in DMSO) was added and the mixture was incubated for another 30 min at 37° C. Reactions were quenched with SDS loading buffer (15 μL-4×) and run on SDS-PAGE.

FAAH = FAAH (Homo sapiens (Human), UniProt O00519); assay: In vitro competitive activity-based protein profiling (human prefrontal cortex membrane fractions, FP-Rh probe), FAAH band; conditions: for IC50: read-out: FAAH IC50 (μM) (human), human prefrontal cortex membrane fractions
Chain of FAAH (O00519 whole entry): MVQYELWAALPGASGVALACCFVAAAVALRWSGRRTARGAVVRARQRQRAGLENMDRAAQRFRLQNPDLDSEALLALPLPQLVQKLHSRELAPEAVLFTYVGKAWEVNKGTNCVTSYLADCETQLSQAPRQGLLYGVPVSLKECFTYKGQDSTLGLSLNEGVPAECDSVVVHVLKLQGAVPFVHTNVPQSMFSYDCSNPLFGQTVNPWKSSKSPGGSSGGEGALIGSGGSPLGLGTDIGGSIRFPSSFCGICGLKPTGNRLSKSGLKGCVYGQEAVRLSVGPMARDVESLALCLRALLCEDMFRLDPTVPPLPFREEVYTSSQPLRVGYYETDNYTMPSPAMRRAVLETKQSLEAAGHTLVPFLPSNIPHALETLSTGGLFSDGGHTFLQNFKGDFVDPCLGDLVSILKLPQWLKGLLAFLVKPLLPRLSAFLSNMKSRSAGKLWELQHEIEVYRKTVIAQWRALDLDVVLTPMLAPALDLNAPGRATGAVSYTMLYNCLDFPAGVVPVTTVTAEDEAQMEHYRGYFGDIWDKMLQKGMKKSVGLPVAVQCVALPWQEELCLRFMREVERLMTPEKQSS
Procedure: as §1, §2

Chain of MAGL (Q99685 whole entry): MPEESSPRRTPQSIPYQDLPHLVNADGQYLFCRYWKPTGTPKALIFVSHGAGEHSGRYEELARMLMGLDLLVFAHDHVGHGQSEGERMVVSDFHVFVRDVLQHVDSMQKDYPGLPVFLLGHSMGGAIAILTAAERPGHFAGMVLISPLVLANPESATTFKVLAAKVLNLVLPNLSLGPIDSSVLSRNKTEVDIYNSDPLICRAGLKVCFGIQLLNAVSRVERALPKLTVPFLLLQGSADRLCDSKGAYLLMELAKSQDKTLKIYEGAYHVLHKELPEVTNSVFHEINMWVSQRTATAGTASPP

## O=C(O)c1ccn(C(=O)N2C[C@H]3C[C@H](OCc4cccc(Oc5ccc(Cl)cc5)c4)C[C@H]3C2)n1 [Example 158, 1-(trans-5-((3-(4-chlorophenoxy)-benzyl)oxy)-octahydrocyclopenta-[c]pyrrole-2-carbonyl)-1H-pyrazole-3-carboxylic acid]
MAGL
  IC50: < 0.1 µM
FAAH
  IC50: < 0.1 µM

## NC(=O)c1ccn(C(=O)N2CC3CN(Cc4ccc(N5CCOCC5)cc4C(F)(F)F)CC3C2)n1 (centres unmarked) [Example 17, 1-(5-(4-Morpholino-2-(trifluoromethyl)benzyl)octahydropyrrolo[3,4-c]pyrrole-2-carbonyl)-1H-pyrazole-3-carboxamide]
MAGL
  IC50: < 0.1 µM
FAAH
  IC50: < 0.1 µM

## NC(=O)c1ccn(C(=O)N2CCN(Cc3ccc(C(F)(F)F)cc3N3CCCC3)CC2)n1 [Example 173, 1-(4-(2-(pyrrolidin-1-yl)-4-(trifluoromethyl)-benzyl)piperazine-1-carbonyl)-1H-pyrazole-3-carboxamide]
MAGL
  IC50: < 0.1 µM
FAAH
  IC50: < 0.1 µM

## O=C(O)c1ccn(C(=O)N2C[C@H]3C[C@H](OCc4ccc(Oc5ccc(Cl)cc5)cc4)C[C@H]3C2)n1 [Example 55, 1-(trans-5-((4-(4-chlorophenoxy)-benzyl)oxy)-octahydrocyclopenta-[c]pyrrole-2-carbonyl)-1H-pyrazole-3-carboxylic acid]
MAGL
  IC50: < 0.1 µM
FAAH
  IC50: < 0.1 µM

## CN(Cc1ccccc1Cl)[C@H]1C[C@@H]2CN(C(=O)n3ccc(C(N)=O)n3)C[C@@H]2C1 [Example 200, 1-(trans-5-((2-chlorobenzyl)-(methyl)amino)-octahydrocyclopenta-[c]pyrrole-2-carbonyl)-1H-pyrazole-3-carboxamide]
MAGL
  IC50: < 0.1 µM
FAAH
  IC50: < 0.1 µM

## NC(=O)c1ccn(C(=O)N2CC3CN(Cc4cc(Cl)ccc4Cl)CC3C2)n1 (centres unmarked) [Example 202, 1-(5-(2,5-dichlorobenzyl)-octahydropyrrolo-[3,4-c]pyrrole-2-carbonyl)-1H-pyrazole-3-carboxamide]
MAGL
  IC50: < 0.1 µM
FAAH
  IC50: < 0.1 µM

## CN(Cc1cccc(C(F)(F)F)c1)C1CCN(C(=O)n2ccc(C(N)=O)n2)CC1 [Example 176, 1-(4-(methyl(3-(trifluoromethyl)-benzyl)amino)-piperidine-1-carbonyl)-1H-pyrazole-3-carboxamide]
MAGL
  IC50: < 0.1 µM
FAAH
  IC50: < 0.1 µM

## O=C(O)c1nn(C(=O)N2CCC3(CCCN3Cc3cc4ccc(C(F)(F)F)cc4s3)CC2)cc1Cl [Example 139, 4-chloro-1-(1-((6-(trifluoromethyl)-benzo[b]thiophen-2-yl)methyl)-1,8-diazaspiro[4.5]-decane-8-carbonyl)-1H-pyrazole-3-carboxylic acid]
MAGL
  IC50: < 0.1 µM
FAAH
  IC50: < 0.1 µM

## CN(Cc1ccc(C(F)(F)F)cc1)[C@@H]1C[C@@H]2CN(C(=O)n3ccc(C(N)=O)n3)C[C@@H]2C1 [Example 205, 1-(cis-5-(methyl(4-(trifluoromethyl)-benzyl)amino)-octahydrocyclopenta-[c]pyrrole-2-carbonyl)-1H-pyrazole-3-carboxamide]
MAGL
  IC50: < 0.1 µM
FAAH
  IC50: < 0.1 µM

## Cc1cc(CO[C@H]2C[C@@H]3CN(C(=O)n4ccc(C(=O)O)n4)C[C@@H]3C2)ccc1C(F)(F)F [Example 172, 1-(trans-5-((3-methyl-4-(trifluoromethyl)-benyl)oxy)-octahydrocyclopenta-[c]pyrrole-2-carbonyl)-1H-pyrazole-3-carboxylic acid]
MAGL
  IC50: < 0.1 µM
FAAH
  IC50: < 0.1 µM

## NC(=O)c1ccn(C(=O)N2CCC3(CCN(Cc4cc(Cl)cc(C(F)(F)F)c4)C3)CC2)n1 [Example 196, 1-(2-(3-chloro-5-(trifluoromethyl)-benzyl)-2,8-diazaspiro[4.5]-decane-8-carbonyl)-1H-pyrazole-3-carboxamide]
MAGL
  IC50: < 0.1 µM
FAAH
  IC50: < 0.1 µM

## NC(=O)c1ccn(C(=O)N2CC3CN(Cc4cc(Cl)cc(C(F)(F)F)c4)CC3C2)n1 (centres unmarked) [Example 201, 1-(5-(3-chloro-5-(trifluoromethyl)-benzyl)-octahydropyrrolo-[3,4-c]pyrrole-2-carbonyl)-1H-pyrazole-3-carboxamide]
MAGL
  IC50: < 0.1 µM
FAAH
  IC50: < 0.1 µM

## C#Cc1ccc(CN2CCN(C(=O)n3ccc(C(N)=O)n3)CC2)cc1 [Example 144, 1-(4-(4-ethynylbenzyl)-piperazine-1-carbonyl)-1H-pyrazole-3-carboxamide]
MAGL
  IC50: < 0.1 µM
FAAH
  IC50: < 0.1 µM

## O=C(O)c1nn(C(=O)N2CCN(Cc3cccc(Oc4ccc(Cl)cc4)c3)CC2)cc1Cl [Example 132, 4-chloro-1-(4-(3-(4-chlorophenoxy)-benzyl)-piperazine-1-carbonyl)-1H-pyrazole-3-carboxylic acid]
MAGL
  IC50: < 0.1 µM
FAAH
  IC50: < 0.1 µM

## CN(Cc1ccccc1Cl)[C@@H]1C[C@@H]2CN(C(=O)n3ccc(C(N)=O)n3)C[C@@H]2C1 [Example 206, 1-(cis-5-((2-chlorobenzyl)-(methyl)amino)-octahydrocyclopenta-[c]pyrrole-2-carbonyl)-1H-pyrazole-3-carboxamide]
MAGL
  IC50: < 0.1 µM
FAAH
  IC50: < 0.1 µM

## NC(=O)c1ccn(C(=O)N2CC3CN(Cc4cccc(C(F)(F)F)c4)CC3C2)n1 (centres unmarked) [Example 208, 1-(5-(3-(trifluoromethyl)-benzyl)-octahydropyrrolo-[3,4-c]pyrrole-2-carbonyl)-1H-pyrazole-3-carboxamide]
MAGL
  IC50: < 0.1 µM
FAAH
  IC50: < 0.1 µM

## NC(=O)c1ccn(C(=O)N2CCC3(CCN(Cc4cc(Cl)ccc4C(F)(F)F)C3)CC2)n1 [Example 99, 1-(2-(5-chloro-2-(trifluoromethyl)-benzyl)-2,8-diazaspiro[4.5]-decane-8-carbonyl)-1H-pyrazole-3-carboxamide]
MAGL
  IC50: < 0.1 µM
FAAH
  IC50: < 0.1 µM

## NC(=O)c1ccn(C(=O)N2CCC3(CCN(Cc4ccc(N5CCCC5)cc4C(F)(F)F)C3)CC2)n1 [Example 195, 1-(2-(4-(pyrrolidin-1-yl)-2-(trifluoromethyl)-benzyl)-2,8-diazaspiro[4.5]-decane-8-carbonyl)-1H-pyrazole-3-carboxamide]
MAGL
  IC50: < 0.1 µM
FAAH
  IC50: < 0.1 µM

## O=C(O)c1ccn(C(=O)N2C[C@H]3C[C@H](Oc4cccc(-c5ccccc5)c4)C[C@H]3C2)n1 [Example 125, 1-(trans-5-([1,1′-biphenyl]-3-yloxy)-octahydrocyclopenta-[c]pyrrole-2-carbonyl)-1H-pyrazole-3-carboxylic acid]
MAGL
  IC50: < 0.1 µM
FAAH
  IC50: < 0.1 µM

## NC(=O)c1ccn(C(=O)N2CCN(Cc3cccc(Oc4ccccc4)c3)CC2)n1 [Example 198, 1-(4-(3-phenoxybenzyl)-piperazine-1-carbonyl)-1H-pyrazole-3-carboxamide]
MAGL; read-out: MAGL % inh. 1 μM (human)
  inhibition at 1 µM: > 75%
FAAH; read-out: FAAH % inh. 1 μM (human)
  inhibition at 1 µM: > 75%

## CN(Cc1ccccc1C(F)(F)F)[C@@H]1C[C@@H]2CN(C(=O)n3ccc(C(N)=O)n3)C[C@@H]2C1 [Example 204, 1-(cis-5-(methyl(2-(trifluoromethyl)-benzyl)amino)-octahydrocyclopenta-[c]pyrrole-2-carbonyl)-1H-pyrazole-3-carboxamide]
MAGL
  IC50: < 0.1 µM
FAAH
  IC50: < 0.1 µM

## CN(Cc1ccccc1Cl)[C@H]1C[C@@H]2CN(C(=O)n3cc(Cl)c(C(N)=O)n3)C[C@@H]2C1 [Example 128, 4-chloro-1-(trans-5-((2-chlorobenzyl)-(methyl)amino)-octahydrocyclopenta-[c]pyrrole-2-carbonyl)-1H-pyrazole-3-carboxamide]
MAGL
  IC50: < 0.1 µM
FAAH
  IC50: < 0.1 µM
